{"source": "patent US5462869A", "about": "“Human endothelin converting enzyme isolated from blood or placenta by hydrated density” (Nisshin Flour Milling Co., Ltd., priority 1991, dated 1995)", "assay_type_in_all_cases": "biochemical, human", "details_in_all_cases": "37° C. 30 minutes, pH 7.0, untreated enzyme as 100", "key": {"[1]": {"test_system": "endothelin converting enzyme III", "experiment": "Effect of inhibitors on activity of converting big endothelin-1 to endothelin-1, enzyme III", "experimental": "(§1) 10 μl of a 100 nmol/ml big endothelin-1 solution is added to 1 ml of an enzyme solution (10 mM trishydrochloric acid-0.15M sodium chloride buffer; pH 7.0), and the enzymatic reaction is carried out at 37° C. for 3 hours. After completion of the reaction, 10 μl of a 0.1M EDTA solution is added thereto to discontinue the reaction. Thereafter, the resultant endothelin-1 is assayed according to the sandwich-EIA method. An enzymatic activity of converting 1 pmol of big endothelin-1 to endothelin-1 per hour under the above-described reaction conditions is termed 1 U (unit).\n(§2) A sample and a predetermined concentration of endothelin standard solution are respectively applied to a 96-hole microplate on which ani-endothelin monoclonal antibody is immobilized to thereby cause the […]. […] Then, biotin-labeled anti-endothelin polyclonal antibody and peroxydase-labeled avidin are applied thereto for reaction. After washing the microplate, activity of bound peroxydase is assayed. Endothelin concentration in the sample is assayed based on the calibration curve drawn by using endothelin standard solutions having predetermined concentrations of endothelin.\n(§3) The enzymes of the invention were tested for the effects of various inhibitors against the activity of converting big endothelin-1 to endothelin-1.\n(§4) Each of the enzymes is incubated in 100 μl of a reaction solution (10 mM tris-hydrochloric acid-0.15M sodium chloride buffer; pH 7.0) containing various inhibitors at 37° C. for 30 minutes, and the residual enzymatic activity is measured in the above-described manner."}, "[2]": {"test_system": "endothelin converting enzyme I", "experiment": "Effect of inhibitors on activity of converting big endothelin-1 to endothelin-1, enzyme I", "experimental": "as §1, §2, §3, §4"}, "[3]": {"test_system": "endothelin converting enzyme II", "experiment": "Effect of inhibitors on activity of converting big endothelin-1 to endothelin-1, enzyme II", "experimental": "as §1, §2, §3, §4"}, "[4]": {"test_system": "endothelin converting enzyme IV", "experiment": "Effect of inhibitors on activity of converting big endothelin-1 to endothelin-1, enzyme IV", "experimental": "as §1, §2, §3, §4"}}, "note": "Square brackets hold non-standard residues; d marks the D form. Peptide text beside a SMILES is read from it. * marks the point of attachment. Sta = CC(C)C[C@H](N)[C@@H](O)CC(=O)O; Isovaleryl = CC(C)CC(=O)*", "data": [{"smiles": "c1cnc2c(c1)ccc1cccnc12", "note": "[1,10-Phenanthroline]", "values": [{"measurement": "Relative Activity (%)", "setting": "[1]; inhibitor 0.5 mM", "result": 7, "unit": "%"}, {"measurement": "Relative Activity (%)", "setting": "[2]; inhibitor 0.5 mM", "result": 10, "unit": "%"}, {"measurement": "Relative Activity (%)", "setting": "[3]; inhibitor 0.5 mM", "result": 5, "unit": "%"}, {"measurement": "Relative Activity (%)", "setting": "[4]; inhibitor 0.5 mM", "result": 8, "unit": "%"}]}, {"smiles": "CC(C)CC(=O)N[C@H](C(=O)N[C@H](C(=O)N[C@@H](CC(C)C)[C@@H](O)CC(=O)N[C@@H](C)C(=O)N[C@@H](CC(C)C)[C@@H](O)CC(=O)O)C(C)C)C(C)C", "note": "[Pepstatin A] (Isovaleryl-VV[Sta]A[Sta]-OH)", "values": [{"measurement": "Relative Activity (%)", "setting": "[1]; inhibitor 0.01 mM", "result": 99, "unit": "%"}, {"measurement": "Relative Activity (%)", "setting": "[2]; inhibitor 0.01 mM", "result": 99, "unit": "%"}, {"measurement": "Relative Activity (%)", "setting": "[3]; inhibitor 0.01 mM", "result": 100, "unit": "%"}, {"measurement": "Relative Activity (%)", "setting": "[4]; inhibitor 0.01 mM", "result": 97, "unit": "%"}]}, {"smiles": "CC(C)C[C@H](NP(=O)(O)O[C@@H]1O[C@@H](C)[C@H](O)[C@@H](O)[C@H]1O)C(=O)N[C@@H](Cc1c[nH]c2ccccc12)C(=O)O", "note": "[Phosphoramidon]", "values": [{"measurement": "Relative Activity (%)", "setting": "[1]; inhibitor 0.1 mM", "result": 1, "unit": "%"}, {"measurement": "Relative Activity (%)", "setting": "[2]; inhibitor 0.1 mM", "result": 1, "unit": "%"}, {"measurement": "Relative Activity (%)", "setting": "[3]; inhibitor 0.1 mM", "result": 2, "unit": "%"}, {"measurement": "Relative Activity (%)", "setting": "[4]; inhibitor 0.1 mM", "result": 3, "unit": "%"}]}]}
